Results: patent US8877748B2, “Heterocyclic fused anthraquinone derivatives, manufacturing method and pharmaceutical composition using thereof” (National Defense Medical Center, priority 2012, dated 2014)

Experiments:
T-47D = experiment: NCI one-dose screening, breast cancer T-47D; assay type: cell-based, human; conditions: 10 μM
HL-60, TB = experiment: NCI one-dose screening, leukemia HL-60, TB; assay type: cell-based, human; conditions: 10 μM
UACC-62 = experiment: NCI one-dose screening, melanoma UACC-62; assay type: cell-based, human; conditions: 10 μM
COLO 205 = experiment: NCI one-dose screening, colon cancer COLO 205; assay type: cell-based, human; conditions: 10 μM
MDA-MB-231/ATCC = experiment: NCI one-dose screening, breast cancer MDA-MB-231/ATCC; assay type: cell-based, human; conditions: 10 μM
SNB-75 = experiment: NCI one-dose screening, CNS cancer SNB-75; assay type: cell-based, human; conditions: 10 μM
MCF7 = experiment: NCI one-dose screening, breast cancer MCF7; assay type: cell-based, human; conditions: 10 μM
NCI-H226 = experiment: NCI one-dose screening, non-small cell lung cancer NCI-H226; assay type: cell-based, human; conditions: 10 μM
UO-31 = experiment: NCI one-dose screening, renal cancer UO-31; assay type: cell-based, human; conditions: 10 μM
CAKI-1 = experiment: NCI one-dose screening, renal cancer CAKI-1; assay type: cell-based, human; conditions: 10 μM
ACHN = experiment: NCI one-dose screening, renal cancer ACHN; assay type: cell-based, human; conditions: 10 μM
BT-549 = experiment: NCI one-dose screening, breast cancer BT-549; assay type: cell-based, human; conditions: 10 μM
UACC-257 = experiment: NCI one-dose screening, melanoma UACC-257; assay type: cell-based, human; conditions: 10 μM
786-O = experiment: NCI one-dose screening, renal cancer 786-O; assay type: cell-based, human; conditions: 10 μM
NCI-H522 = experiment: NCI one-dose screening, non-small cell lung cancer NCI-H522; assay type: cell-based, human; conditions: 10 μM
KM12 = experiment: NCI one-dose screening, colon cancer KM12; assay type: cell-based, human; conditions: 10 μM
SK-MEL-2 = experiment: NCI one-dose screening, melanoma SK-MEL-2; assay type: cell-based, human; conditions: 10 μM
HOP-62 = experiment: NCI one-dose screening, non-small cell lung cancer HOP-62; assay type: cell-based, human; conditions: 10 μM
SK-MEL-28 = experiment: NCI one-dose screening, melanoma SK-MEL-28; assay type: cell-based, human; conditions: 10 μM
SN12C = experiment: NCI one-dose screening, renal cancer SN12C; assay type: cell-based, human; conditions: 10 μM
SK-MEL-5 = experiment: NCI one-dose screening, melanoma SK-MEL-5; assay type: cell-based, human; conditions: 10 μM
RXF, 393 = experiment: NCI one-dose screening, renal cancer RXF, 393; assay type: cell-based, human; conditions: 10 μM
SF-295 = experiment: NCI one-dose screening, CNS cancer SF-295; assay type: cell-based, human; conditions: 10 μM
NCl/ADR-RES = experiment: NCI one-dose screening, breast cancer NCl/ADR-RES; assay type: cell-based, human; conditions: 10 μM; listed under Ovarian cancer
HT29 = experiment: NCI one-dose screening, colon cancer HT29; assay type: cell-based, human; conditions: 10 μM
HOP-92 = experiment: NCI one-dose screening, non-small cell lung cancer HOP-92; assay type: cell-based, human; conditions: 10 μM
SR = experiment: NCI one-dose screening, leukemia SR; assay type: cell-based, human; conditions: 10 μM
PRMI-8226 cell line = experiment: NCI one-dose screening, leukemia PRMI-8226; assay type: cell-based, human; conditions: 10 μM
U251 = experiment: NCI one-dose screening, CNS cancer U251; assay type: cell-based, human; conditions: 10 μM
HCC-2998 = experiment: NCI one-dose screening, colon cancer HCC-2998; assay type: cell-based, human; conditions: 10 μM
OVCAR-8 = experiment: NCI one-dose screening, ovarian cancer OVCAR-8; assay type: cell-based, human; conditions: 10 μM
[1] = NCI one-dose screening, renal cancer A489; assay type: cell-based, human; conditions: 10 μM
human tumor cell lines = experiment: NCI one-dose screening, Mean / Delta / Range of growth percent over all tested cell lines; assay type: cell-based; conditions: 10 μM
MDA, -MB-435 = experiment: NCI one-dose screening, breast cancer MDA, -MB-435; assay type: cell-based, human; conditions: 10 μM; listed under Melanoma
IGROV1 = experiment: NCI one-dose screening, ovarian cancer IGROV1; assay type: cell-based, human; conditions: 10 μM
MALME-3M = experiment: NCI one-dose screening, melanoma MALME-3M; assay type: cell-based, human; conditions: 10 μM
HCT-15 = experiment: NCI one-dose screening, colon cancer HCT-15; assay type: cell-based, human; conditions: 10 μM
SF-268 = experiment: NCI one-dose screening, CNS cancer SF-268; assay type: cell-based, human; conditions: 10 μM
TK-10 = experiment: NCI one-dose screening, renal cancer TK-10; assay type: cell-based, human; conditions: 10 μM
SK-OV-3 = experiment: NCI one-dose screening, ovarian cancer SK-OV-3; assay type: cell-based, human; conditions: 10 μM
HCT-116 = experiment: NCI one-dose screening, colon cancer HCT-116; assay type: cell-based, human; conditions: 10 μM
PC-3 = experiment: NCI one-dose screening, prostate cancer PC-3; assay type: cell-based, human; conditions: 10 μM
K562cell line = experiment: NCI one-dose screening, leukemia K562; assay type: cell-based, human; conditions: 10 μM
LOX IMVI = experiment: NCI one-dose screening, melanoma LOX IMVI; assay type: cell-based, human; conditions: 10 μM
NCI-H23 = experiment: NCI one-dose screening, non-small cell lung cancer NCI-H23; assay type: cell-based, human; conditions: 10 μM
SF-539 = experiment: NCI one-dose screening, CNS cancer SF-539; assay type: cell-based, human; conditions: 10 μM
HS 578-T = experiment: NCI one-dose screening, breast cancer HS 578-T; assay type: cell-based, human; conditions: 10 μM; Breast cancer
NCI-H460 = experiment: NCI one-dose screening, non-small cell lung cancer NCI-H460; assay type: cell-based, human; conditions: 10 μM
MDA-MB-468 = experiment: NCI one-dose screening, breast cancer MDA-MB-468; assay type: cell-based, human; conditions: 10 μM
MOLT-4 = experiment: NCI one-dose screening, leukemia MOLT-4; assay type: cell-based, human; conditions: 10 μM
SNB-19 = experiment: NCI one-dose screening, CNS cancer SNB-19; assay type: cell-based, human; conditions: 10 μM
DU145 = experiment: NCI one-dose screening, prostate cancer DU145; assay type: cell-based, human; conditions: 10 μM
[2] = tested on: PC-3 prostate cancer cell line; experiment: SRB assay cell viability, PC-3 prostate cancer cell line; assay type: cell-based, human; conditions: PC-3 prostate cancer cell line, Table II prints no unit, μM printed, read-out: SRB assay: 50% inhibition of cancer cell proliferation of sample concentration (IC50) of PC-3 prostate cancer cell line
OVCAR-3 = experiment: NCI one-dose screening, ovarian cancer OVCAR-3; assay type: cell-based, human; conditions: 10 μM
A549/ATCC = experiment: NCI one-dose screening, non-small cell lung cancer A549/ATCC; assay type: cell-based, human; conditions: 10 μM
EKVX = experiment: NCI one-dose screening, non-small cell lung cancer EKVX; assay type: cell-based, human; conditions: 10 μM
M14 = experiment: NCI one-dose screening, melanoma M14; assay type: cell-based, human; conditions: 10 μM
OVCAR-5 = experiment: NCI one-dose screening, ovarian cancer OVCAR-5; assay type: cell-based, human; conditions: 10 μM

Compound: O=C1c2ccccc2C(=O)c2c1cc(Sc1ccccc1Br)c1nsnc21 [C27, 4-(2-bromo-phenylthio)anthra[2,1-c] [1,2,5]thiadiazol oxazole-6,11-dione]
- Growth Percent T-47D (T-47D): −33.05%
- Growth Percent HL-60(TB) (HL-60, TB): −43.96%
- Growth Percent UACC-62 (UACC-62): 39.58%
- Growth Percent COLO 205 (COLO 205): 97.36%
- Growth Percent MDA-MB-231/ATCC (MDA-MB-231/ATCC): 16.85%
- Growth Percent SNB-75 (SNB-75): 47.20%
- Growth Percent MCF7 (MCF7): −6.39%
- Growth Percent NCI-H226 (NCI-H226): 92.07%
- Growth Percent UO-31 (UO-31): 56.15%
- Growth Percent CAKI-1 (CAKI-1): 29.67%
- Growth Percent ACHN (ACHN): 25.50%
- Growth Percent BT-549 (BT-549): 52.19%
- Growth Percent UACC-257 (UACC-257): 4.75%
- Growth Percent 786-0 (786-O): −6.19%
- Growth Percent NCI-H522 (NCI-H522): 30.77%
- Growth Percent KM12 (KM12): 57.85%
- Growth Percent SK-MEL-2 (SK-MEL-2): 35.02%
- Growth Percent HOP-62 (HOP-62): 4.88%
- Growth Percent SK-MEL-28 (SK-MEL-28): 64.65%
- Growth Percent SN12C (SN12C): 22.56%
- Growth Percent SK-MEL-5 (SK-MEL-5): 46.26%
- Growth Percent RXF 393 (RXF, 393): −8.53%
- Growth Percent SF-295 (SF-295): 100.07%
- Growth Percent NCI/ADR-RES (NCl/ADR-RES): −29.94%
- Growth Percent HT29 (HT29): 96.46%
- Growth Percent HOP-92 (HOP-92): 37.57%
- Growth Percent SR (SR): 2.94%
- Growth Percent RPMI-8226 (PRMI-8226 cell line): 9.40%
- Growth Percent U251 (U251): 11.49%
- Growth Percent HCC-2998 (HCC-2998): 78.44%
- Growth Percent OVCAR-8 (OVCAR-8): 2.47%
- Growth Percent A498 [1]: 24.25%
- Growth Percent Delta (human tumor cell lines; delta over all cell lines): 109.49%
- Growth Percent Mean (human tumor cell lines; mean over all cell lines): 29.61%
- Growth Percent Range (human tumor cell lines; range over all cell lines): 200.40%
- Growth Percent MDA-MB-435 (MDA, -MB-435): −72.95%
- Growth Percent IGROV1 (IGROV1): 27.94%
- Growth Percent MALME-3M (MALME-3M): 35.27%
- Growth Percent HCT-15 (HCT-15): 39.74%
- Growth Percent SF-268 (SF-268): −5.11%
- Growth Percent TK-10 (TK-10): 76.52%
- Growth Percent SK-OV-3 (SK-OV-3): 66.68%
- Growth Percent HCT-116 (HCT-116): 16.62%
- Growth Percent PC-3 (PC-3): 4.23%
- Growth Percent K562 (K562cell line): 29.66%
- Growth Percent LOX IMVI (LOX IMVI): −15.34%
- Growth Percent NCI-H23 (NCI-H23): 18.02%
- Growth Percent SF-539 (SF-539): −5.66%
- Growth Percent HS 578T (HS 578-T): 54.25%
- Growth Percent NCI-H460 (NCI-H460): 58.24%
- Growth Percent MDA-MB-468 (MDA-MB-468): −79.88%
- Growth Percent MOLT-4 (MOLT-4): 29.67%
- Growth Percent SNB-19 (SNB-19): 71.38%
- Growth Percent DU145 (DU145): 50.57%
- IC50 [2]: 5.76 µM
- Growth Percent OVCAR-3 (OVCAR-3): −65.85%
- Growth Percent A549/ATCC (A549/ATCC): 95.37%
- Growth Percent EKVX (EKVX): 77.74%
- Growth Percent M14 (M14): 59.45%
- Growth Percent OVCAR-5 (OVCAR-5): 120.52%
